# Measurements: EP4613329A1, “COMPOUND FOR INHIBITING BRD PROTEIN” (Benobio Co., Ltd., priority 2024, dated 2025)
# Experiments:
# [1] = test system: retinal degeneration mouse model; assay: Electroretinogram (ERG) in blue LED-induced retinal degeneration mouse model; assay type: in vivo, albino BALB/c mice; details: compound 24 nM, Com. Ex. 4 25 mg/kg; for Wavelength enhanced multiple compared to normal saline-treated group, Average value: average of a-wave and b-wave, intravitreal; for Wavelength enhanced multiple compared to normal saline-treated group, a-wave / Wavelength enhanced multiple compared to normal saline-treated group, b-wave: single intravitreal injection 1 hour after LED exposure
# Experimental: In order to fabricate a retinal degeneration model, 7-week-old male albino BALB/c mice were used. Three mice were randomly assigned to each test group, and light and dark were maintained at 12-hour intervals. Each mouse was dark-adapted for 24 hours and then the pupils were dilated with 0.5% tropicamide and 0.5% phenylephrine hydrochloride eye drops (Santen, Osaka, Japan) 30 minutes before blue LED exposure. Unanesthetized mice were exposed to 2,000 lux of a blue LED (460 ± 10 nm) for 2 hours in a cage with reflective interiors. The light intensity was measured using an LED photometer (model TM-201L, TENMARS Electronics, Taipei, Taiwan). After exposure to blue LED, the mice were kept in the dark for 24 hours and then resumed on a 12-hour light/dark cycle for 3 days.
# In a test substance control test, mice with retinal degeneration were divided into a normal saline-administered group and a compound-administered group (24 nM) of the present disclosure, and 3 mice were randomly assigned to each test group. A positive control test was divided into a normal saline-administered group and an Eyela (25 mg/kg mouse body weight)-administered group (Comparative Example 4), and three mice were randomly assigned to each test group.
# All test groups were administered as a single dose by intravitreal injection 1 hour after LED exposure.
# That is, mice were stored in a completely dark room for 16 hours before ERG recordings. All animals were anesthetized intraperitoneally with zolazepam (20 mg/kg) and xylazine (7.5 mg/kg). The cornea was coated with hydroxypropyl methylcellulose gel and covered with a gold ring contact electrode. Ground and reference electrodes were disposed subcutaneously on the tail and ears, respectively. Stimuli were short white flashes delivered through a Ganzfeld stimulator (UTAS-3000; LKC Technologies, Gaithersburg, MD, USA). The signal was amplified and filtered through a digital band-pass filter in the range of 5 to 300 Hz to generate a and b waves. Scotopic ERG, and rod-mediated responses were obtained at increasing light intensities of 0.025 and 3.96 cd/s • m^2. Photopic, cone-mediated responses were obtained after 5-min light adaptation to background light intensity. The recordings were obtained at the light intensity of 6.28 cd/s • m^2. Each recording was the average of three responses obtained within a 15-second stimulation interval. A-wave amplitude was measured from a baseline to the maximum a-wave peak, and b-wave amplitude was measured from the maximum a-wave peak to the maximum b-wave peak.
# [2] = molecular target: T1, BRD2 (BD1) (Homo sapiens, UniProt P25440); assay: Binding inhibitory effect on BRD2 protein (AlphaScreen, GST-BRD2 (BD1) / biotinylated acetyl-histone H4 peptide); details: 100 nM GST-BRD2 (BD1), 100 nM biotinylated acetyl-histone H4 (Lys5, 8, 12, 16) peptide
# T1 construct: a bromodomain of BRD2 (BD1) and BRD3 (BD1), one of the BRD protein family
# [3] = molecular target: T2, BRD3 (BD1) (Homo sapiens, UniProt Q15059); assay: Binding inhibitory effect on BRD3 protein (same manner as Experimental Example 1-1)
# T2 construct: a bromodomain of BRD2 (BD1) and BRD3 (BD1), one of the BRD protein family; GST
# [4] = test system: macular degeneration animal model; assay: Laser burn-induced macular degeneration animal model, OCT and FFA image analysis; assay type: in vivo, mouse; details: compounds 0.022 µg/eye, Com. Ex. 4 20 µg/eye
# Experimental: After the mouse was subjected to general anesthesia, the eye was applied with anesthetic eye drops to be subjected to additional local anesthesia and additionally induce mydriasis. A macular degeneration animal model was prepared by destroying the Bruch's membrane by inducing laser burn according to macular degeneration induction conditions. […] On day 11 of macular degeneration induction, the mice were subjected to general anesthesia and then injected intraperitoneally with a fluorescent contrast agent. The mouse was placed on the sacrifice table, lubricating gel was dropped into the corresponding eye, and an OCT lens was brought into contact with the mouse's cornea. Image analysis for fluorescein fundus angiography (FFA) and OCT was performed using the Image-J program.
# T1 sequence (P25440 74-180 limits assumed, species assumed): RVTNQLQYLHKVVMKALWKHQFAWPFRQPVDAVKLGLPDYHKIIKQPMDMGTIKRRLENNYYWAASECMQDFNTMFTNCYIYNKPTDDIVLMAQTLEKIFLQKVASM
# T2 sequence (Q15059 34-140 limits assumed, species assumed): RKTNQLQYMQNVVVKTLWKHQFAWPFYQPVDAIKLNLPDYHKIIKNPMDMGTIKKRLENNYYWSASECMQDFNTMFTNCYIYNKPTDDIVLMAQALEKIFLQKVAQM
SMILES,"Wavelength enhanced multiple compared to normal saline-treated group, Average value [1]","Wavelength enhanced multiple compared to normal saline-treated group, a-wave [1]","Wavelength enhanced multiple compared to normal saline-treated group, b-wave [1]",IC50 [2],IC50 [3],"Lesion size compared to negative control group (FFA) ([4]; FFA imaging, day 11, negative control = excipient)","CTF value ([4]; FFA imaging, day 11 of macular degeneration induction, both eyes)","Lesion size compared to negative control group (OCT) ([4]; OCT imaging, day 11, negative control = excipient)","Volume of lesion ([4]; OCT imaging, day 11 of macular degeneration induction, both eyes)"
"CN1Cc2c(cccc2-c2ccccc2-c2ccc(CN3CCOCC3)o2)C1=O [Compound 13, 2-methyl-4-(2-(5-(morpholinomethyl)furan-2-yl)phenyl)isoindoline-1-one]",1.33,1.29,1.36,7.65 µM,3.65 µM,–,–,–,–
CNC(=O)C1(Cc2ccccc2)CCCN1Cc1ccc(-c2ccccc2-c2cccc3c2CN(C)C3=O)o1 (centres unmarked) [Compound 28],1.33,1.31,1.35,10.9 µM,4.36 µM,35.40%,"325,936 Pixels",51.99%,"1,132,542 µm^3"
"CNC(=O)C1(Cc2ccc(F)cc2)CCN(Cc2ccc(-c3ccccc3-c3cccc4c3CN(C)C4=O)o2)CC1 [Compound 21, 2-methyl-4-(2-(5-(((4-(4-fluorobenzyl)-4'-carboxamidyl)piperidine)methyl)furan-2-yl)phenyl)isoindoline-1-one]",2.30,2.17,2.42,13.9 µM,1.16 µM,–,–,–,–
"CN1Cc2c(cccc2-c2ccccc2-c2ccc(CNCc3cnn(C)c3)o2)C1=O [Compound 18, 2-methyl-4-(2-(5-((((1-methyl-1H-pyrazole-4yl)methyl)amino)methyl)furan-2-yl)phenyl)isoindoline-1-one]",2.04,2.05,2.03,6.51 µM,2.67 µM,–,–,–,–

# Now from value to molecule, other results behind:
"Wavelength enhanced multiple compared to normal saline-treated group, Average value [1]","Wavelength enhanced multiple compared to normal saline-treated group, a-wave [1]","Wavelength enhanced multiple compared to normal saline-treated group, b-wave [1]",IC50 [2],IC50 [3],SMILES,"Lesion size compared to negative control group (FFA) ([4]; FFA imaging, day 11, negative control = excipient)","CTF value ([4]; FFA imaging, day 11 of macular degeneration induction, both eyes)","Lesion size compared to negative control group (OCT) ([4]; OCT imaging, day 11, negative control = excipient)","Volume of lesion ([4]; OCT imaging, day 11 of macular degeneration induction, both eyes)"
1.32,1.25,1.38,10.9 µM,3.77 µM,"CNC(=O)CC1C(=O)NCCN1Cc1oc(-c2ccccc2-c2cccc3c2CN(C)C3=O)cc1C (centres unmarked) [Compound 42, 2-methyl-4-(2-(5-(3-methyl(N-methyl-2-(3-oxopiperazine-2yl)acetamidyl)methyl)furan-2-yl)phenyl)isoindoline-1-one]",–,–,–,–
1.36,1.21,1.51,8.67 µM,4.16 µM,"CNC(=O)C1(Cc2ccc(F)cc2)CCN(Cc2oc(-c3ccccc3-c3cccc4c3CN(C)C4=O)cc2C)CC1 [Compound 39, 2-methyl-4-(2-(5-((3-methyl(4-(4-fluorobenzyl)-4'-carboxamidyl)piperidine)methyl)furan-2-yl)phenyl)isoindoline-1-one]",–,–,–,–
1.38,1.45,1.31,9.5 µM,4.76 µM,"CN1Cc2c(cccc2-c2ccccc2-c2ccc(COCN3CCC(F)(F)CC3)o2)C1=O [Compound 37, 2-methyl-4-(2-(5-((((4,4-difluoropiperidine-1-yl)methoxy)-3-carboxamidyl)methyl)furan-2-yl)phenyl)isoindoline-1-one]",–,–,–,–
1.30,1.16,1.43,10.6 µM,3.96 µM,CCC1(C(=O)NC)CCCN(Cc2oc(-c3ccccc3-c3cccc4c3CN(C)C4=O)cc2C)C1 (centres unmarked) [Compound 40],–,–,–,–
